Test results as given in US20260069539A1, “LIPIDOID COMPOUNDS AND RELATED COMPOSITIONS AND USES” (Poseida Therapeutics, Inc., priority 2023, published 2026).

Tests used:
[1] = Body weight change / body weight loss 24 hours post-administration of LNP; assay type: in vivo, BALB/C mice; settings: fLuc mRNA 0.5 mg/kg i.v.
Description: In addition, the body weight of mice treated with LNP compositions of the present disclosure prepared as described in Example 77 was assessed prior to intravenous administration and 24 hours post-administration and the body weights at baseline and post-treatment were compared.
In addition, the body weight of mice treated with LNP compositions of the present disclosure was assessed prior to intravenous administration and 24 hours post-administration and the body weights at baseline and post-treatment were compared.
Body weight loss (BWL) measurements were taken at 24 hrs post administration and luciferase expression was measured by whole body luminescence imaging (BLI) at 48 hours post-administration.
Blood was drawn from control and treated mice 4 hrs post-administration for cytokine analysis, body weight loss (BWL) measurements were taken at 24 hrs post administration and luciferase expression was measured by whole body luminescence imaging (BLI) at 48 hours post-administration.

liver cells [2] = test: In vivo LNP delivery of fLuciferase mRNA, bioluminescent imaging (BLI) at 4 hr; set-up: species or system BALB/C mice; settings: for Mean Luciferase Flux: 0.5 mg/kg fLuc mRNA i.v., 4 hr; for Total Flux: 0.5 mg/kg fLuciferase mRNA intravenous
Description: Adult female BALB/C mice (n=3/group) were intravenously administered 0.5 mg/kg of 5′-CleanCap—fLuciferase mRNA (TriLink Biotech) formulated with the LNP compositions shown in Table 6. One group of mice was treated with vehicle (PBS, Thermo Fisher Scientific, USA) as a negative control.
(§1) The location and extent of luciferase expression in treated and control mice were determined at 4 hr for mRNA and 48 hr for DNA by bioluminescent imaging (BLI) of anesthetized mice using an IVIS Lumina in vivo imaging system (Perkin Elmer) according to the manufacturer's instructions. Briefly, mice were anesthetized using isoflurane in oxygen, and placed supine on a heated stage. Mice were then administered D-luciferin (Perkin-Elmer #122799) IP, and BLI was performed.
as §1, with “hr” for “hr for mRNA and 48 hr for DNA”
as §1, with “hr” for “hr for mRNA and 48 hr for DNA”
The location and extent of luciferase expression in treated and control mice were determined at 4 hr by bioluminescent imaging (BLI) of anesthetized mice using an IVIS Lumina in vivo imaging system (Perkin Elmer) according to the manufacturer's instructions.
Briefly, mice were anesthetized using isoflurane in oxygen, and placed supine on a heated stage. Mice were then administered D-luciferin (Perkin-Elmer #122799) IP, and BLI was performed.
as §1, with “hr” for “hr for mRNA and 48 hr for DNA”

liver cells [3] = test: In vivo LNP delivery of DNA encoding firefly luciferase, bioluminescent imaging (BLI) at 48 hr; set-up: species or system BALB/C mice; settings: for Total Flux: Example 103, 0.5 mg/kg DNA intravenous; for Total Flux / Mean Luciferase Flux (p/s): BLI at 48 hr; for Mean Luciferase Flux (p/s): adult BALB/C mice, 0.5 mg/kg DNA encoding firefly luciferase in LNP
Description: Adult BALB/C mice (n=3) were administered 0.5 mg/kg of DNA encoding firefly luciferase (Nature Technology Corp) formulated in a LNP composition listed in Table 4. One group of mice was treated with vehicle (PBS, Thermo Fisher Scientific, USA) as a negative control.
as §1, with “at” for “at 4 hr for mRNA and”, “DNA delivery” for “DNA”
as §1, with “at” for “at 4 hr for mRNA and”, “performed. […]” for “performed.”
Body weight loss (BWL) measurements were taken at 24 hrs post administration and luciferase expression was measured by whole body luminescence imaging (BLI) at 48 hours post-administration. […]
Luciferase expression was measured by whole body luminescence imaging (BLI) at 48 hours post-administration.

[4] = LNP with 50 % moles of COMPOUND NO. 38 or 39 (DOPC 10/Chol 38.5/PEG-DMG 1.5, Lipid:RNA 80)
[5] = Example 104, experiment of Table 63, BLI at 4 hr
[6] = Example 104, experiment of Table 64, BLI at 4 hr
[7] = Table 13 experiment, LNP with 50 % moles of the compound (DOPC 10/Chol 38.5/PEG-DMG 1.5, Lipid:RNA 80)
[8] = LNP with 40.75 % moles of the compound (DOPC 5.0/Chol 51.75/PEG-DMG 2.5, Lipid:RNA 100)
[9] = LNP with 43.17 % moles of the compound (DOPC 11.96/Chol 43.17/PEG-DMG 1.7, Lipid:RNA 100)
[10] = LNP with 54.0 % moles of the compound (DOPC 10.0/Chol 35.0/PEG-DMG 1.0, Lipid:RNA 100)

## CC(C)CCCC1CCC(COC(=O)C(CCCN(CCO)CCCC(C(=O)OCC2CCC(CCCC(C)C)CC2)C(=O)OCC2CCC(CCCC(C)C)CC2)C(=O)OCC2CCC(CCCC(C)C)CC2)CC1 (stereo not shown) [COMPOUND NO. 42]
[1]; LNP with 40.75 % moles of the compound
  % body weight change: −2.3%
[1]; LNP with 50 % moles of the compound
  % body weight change: −4.0%
Liver cells [2]; Table 15 experiment, LNP with 40.75 % moles of the compound (Lipid:RNA 80)
  Mean Luciferase Flux: 1.23E+09 p/s
Liver cells [2]; Table 15 experiment, LNP with 50 % moles of the compound (Lipid:RNA 80)
  Mean Luciferase Flux: 8.27E+09 p/s

## CCCCC[C@H]1CC[C@H](C(=O)OCC(COC(=O)CCCCCN(CCCCO)CCCCCC(=O)COC(COC(=O)[C@H]2CC[C@H](CCCCC)CC2)COC(=O)[C@H]2CC[C@H](CCCCC)CC2)COC(=O)[C@H]2CC[C@H](CCCCC)CC2)CC1 [COMPOUND NO. 38]
Liver cells [2]; [4]
  Mean Luciferase Flux: 1.17E+11 p/s
Liver cells [3]; LNP with 10% DSPC
  Total Flux: 8.29E+07 p/s

## CCCCCC1CCC(C(=O)OCCOC(=O)CCN(CCCN(C)CCCN(CCC(=O)OCCOC(=O)[C@H]2CC[C@H](CCCCC)CC2)CCC(=O)OCCOC(=O)[C@H]2CC[C@H](CCCCC)CC2)CCC(=O)OCCOC(=O)C2CCC(CCCCC)CC2)CC1 (stereo partly shown) [COMPOUND NO. 3]
Liver cells [3]
  Mean Luciferase Flux (p/s): 2.12E+08 p/s

## CCCCCC1CCC(C(=O)OCCOC(=O)CCN(CCCN(C)CCN(CCC(=O)OCCOC(=O)[C@H]2CC[C@H](CCCCC)CC2)CCC(=O)OCCOC(=O)[C@H]2CC[C@H](CCCCC)CC2)CCC(=O)OCCOC(=O)C2CCC(CCCCC)CC2)CC1 (stereo partly shown) [COMPOUND NO. 4]
Liver cells [3]
  Mean Luciferase Flux (p/s): 1.36E+09 p/s

## CCCCC[C@H]1CC[C@H](C(=O)OCC(COC(=O)CCCCCN(CCCCCC(=O)COC(COC(=O)[C@H]2CC[C@H](CCCCC)CC2)COC(=O)[C@H]2CC[C@H](CCCCC)CC2)CCCCNC(C)=O)COC(=O)[C@H]2CC[C@H](CCCCC)CC2)CC1 [COMPOUND NO. 39]
Liver cells [2]; [4]
  Mean Luciferase Flux: 9.49E+10 p/s
Liver cells [3]; LNP with 10% DOPC
  Total Flux: 2.03E+06 p/s

## O=C(CCCCCN(CCO)CCCCCC(=O)OCC(COC(=O)CCCCC1CCCCC1)COC(=O)CCCCC1CCCCC1)OCC(COC(=O)CCCCC1CCCCC1)COC(=O)CCCCC1CCCCC1 [COMPOUND NO. 65]
Liver cells [2]; [5]
  Total Flux: 1.30E+11 p/s

## CCCCC[C@H]1CC[C@H](C(=O)OCC(COC(=O)CCCCCN(CCCCCC(=O)OCC(COC(=O)[C@H]2CC[C@H](CCCCC)CC2)COC(=O)[C@H]2CC[C@H](CCCCC)CC2)[C@H]2CC[C@H](CO)CC2)COC(=O)[C@H]2CC[C@H](CCCCC)CC2)CC1 [COMPOUND NO. 54]
Liver cells [2]; [5]
  Total Flux: 1.30E+11 p/s

## CCCCC[C@H]1CC[C@H](C(=O)OCC(COC(=O)CCCCCN(CCCCCO)CCCCCC(=O)OCC(COC(=O)[C@H]2CC[C@H](CCCCC)CC2)COC(=O)[C@H]2CC[C@H](CCCCC)CC2)COC(=O)[C@H]2CC[C@H](CCCCC)CC2)CC1 [COMPOUND NO. 51]
Liver cells [2]; [5]
  Total Flux: 2.65E+10 p/s

## CCCCC[C@H]1CC[C@H](C(=O)OCC(COC(=O)CCCCCN(CCCCCC(=O)OCC(COC(=O)[C@H]2CC[C@H](CCCCC)CC2)COC(=O)[C@H]2CC[C@H](CCCCC)CC2)CC(O)CO)COC(=O)[C@H]2CC[C@H](CCCCC)CC2)CC1 (mixture of isomers) [COMPOUND NO. 59]
Liver cells [2]; [6]
  Total Flux: 1.06E+11 p/s

## CCCCCCCCCCCC(=O)OCC(COC(=O)CCCCCCCCCCC)COC(=O)CCCCCN(CCO)CCCCCC(=O)OCC(COC(=O)CCCCCCCCCCC)COC(=O)CCCCCCCCCCC [compound 100, reference compound]
Liver cells [2]; 0.5 mg/kg fLuciferase mRNA in LNP, BLI at 4 hr
  RNA delivery potency: RNA delivery potency increases with increasing number of cyclohexyl-substituted tails
Liver cells [2]; [6]
  Total Flux: 3.24E+10 p/s
Liver cells [3]; 0.5 mg/kg DNA, BLI 48 hr, compared to LNPs comprising COMPOUND NOS. 36, 37, or 38
  DNA delivery potency: greatly reduced
Liver cells [3]; LNP comprising compound 100, composition not stated
  Total Flux: 1.97E+07 p/s

## CCCCC[C@H]1CC[C@H](C(=O)OCCCCCN(CCO)CCCOC(=O)[C@H]2CC[C@H](CCCCC)CC2)CC1 [COMPOUND NO. 21]
Liver cells [2]; [7]
  Mean Luciferase Flux: 1.27E+08 p/s

## CCCCCCCCC(CCCCCCCC)OC(=O)[C@H]1CC[C@H](C(=O)OCCCCCN(CCCCO)CCCCCOC(=O)[C@H]2CC[C@H](C(=O)OC(CCCCCCCC)CCCCCCCC)CC2)CC1 [COMPOUND NO. 32]
Liver cells [2]; [7]
  Mean Luciferase Flux: 7.76E+09 p/s

## CCCCCCCCC(CCCCCCCC)OC(=O)[C@H]1CC[C@H](C(=O)OCCCCCN(CCCO)CCCCCOC(=O)[C@H]2CC[C@H](C(=O)OC(CCCCCCCC)CCCCCCCC)CC2)CC1 [COMPOUND NO. 31]
Liver cells [2]; [7]
  Mean Luciferase Flux: 1.00E+10 p/s

## CN(CCN(CCC(=O)OCCOC(=O)CCCCC1CCCCC1)CCC(=O)OCCOC(=O)CCCCC1CCCCC1)CCN(CCC(=O)OCCOC(=O)CCCCC1CCCCC1)CCC(=O)OCCOC(=O)CCCCC1CCCCC1 [COMPOUND NO. 6]
Liver cells [2]; [8]
  Mean Luciferase Flux: 1.78E+11 p/s
Liver cells [2]; [9]
  Mean Luciferase Flux: 3.23E+10 p/s
Liver cells [2]; [10]
  Mean Luciferase Flux: 4.58E+10 p/s

## CCCCC[C@H]1CC[C@H](C(=O)OCC(COC(=O)CCCCN(CCO)CCCCC(=O)OCC(COC(=O)[C@H]2CC[C@H](CCCCC)CC2)COC(=O)[C@H]2CC[C@H](CCCCC)CC2)COC(=O)[C@H]2CC[C@H](CCCCC)CC2)CC1 [COMPOUND NO. 71]
Liver cells [2]; Example 104, experiment of Table 65, BLI at 4 hr
  Total Flux: 1.78E+11 p/s

## O=C(CCCCCN(CCCO)CCCCCC(=O)OCC(COC(=O)CCCCC1CCCCC1)COC(=O)CCCCC1CCCCC1)OCC(COC(=O)CCCCC1CCCCC1)COC(=O)CCCCC1CCCCC1 [COMPOUND NO. 66]
Liver cells [2]; [5]
  Total Flux: 3.25E+11 p/s

## CC(C)CCCC1CCC(COC(=O)CCN(CCCN(C)CCCN(CCC(=O)OCC2CCC(CCCC(C)C)CC2)CCC(=O)OCC2CCC(CCCC(C)C)CC2)CCC(=O)OCC2CCC(CCCC(C)C)CC2)CC1 (stereo not shown) [COMPOUND NO. 1]
Liver cells [2]; [8]
  Mean Luciferase Flux: 8.79E+09 p/s
Liver cells [2]; [9]
  Mean Luciferase Flux: 1.01E+10 p/s
Liver cells [2]; [10]
  Mean Luciferase Flux: 6.15E+08 p/s

## CCCCC[C@H]1CC[C@H](C(=O)OCC(COC(=O)CCCCCN(CCCCCC(=O)OCC(COC(=O)[C@H]2CC[C@H](CCCCC)CC2)COC(=O)[C@H]2CC[C@H](CCCCC)CC2)[C@H]2CC[C@H](O)CC2)COC(=O)[C@H]2CC[C@H](CCCCC)CC2)CC1 [COMPOUND NO. 53]
Liver cells [3]; LNP with 10% DOPC
  Total Flux: 4.23E+07 p/s

## CCCCC[C@H]1CC[C@H](C(=O)OCC(COC(=O)CCCCCN(CCCCCC(=O)OCC(COC(=O)[C@H]2CC[C@H](CCCCC)CC2)COC(=O)[C@H]2CC[C@H](CCCCC)CC2)C[C@@H](O)CO)COC(=O)[C@H]2CC[C@H](CCCCC)CC2)CC1 [COMPOUND NO. 60]
Liver cells [2]; [6]
  Total Flux: 6.51E+10 p/s
